One data set relates to HepG2. The data set is described as follows: MTT viability assay, HepG2. The class given is cell-based. The note with it: Homo sapiens, 48 h treatment, mean of three independent experiments. Here is the method: (§1) To evaluate the cytotoxic effects of the hybrid compounds geo15 and geo140, we performed MTT assays on HeLa, K562, A549, HepG2, HT-29 and Caco2 cancer cell lines, as well as primary intestinal subepithelial myofibroblasts (SEMFs).
(§2) HeLa, K562, HT-29, Caco-2, HepG2 and A549 cancer cell lines were obtained from the American Type Culture Collection (ATCC). All cell lines were cultured at 37 °C with 5% CO2. HeLa, Caco-2, HepG2 and A549 cells were maintained in Dulbecco's modified Eagle medium (DMEM, PAN Biotech) supplemented with 10% FBS and antibiotics/antimycotics, while K562 cells were maintained in RPMI and HT-29 cells in McCoy's 5a medium (Biosera) with the same supplements.
(§3) All cells were seeded in 96-well plates (Corning, New York, USA) at density of 10^4 cells per well, except HeLa that were seeded at destiny of 2 × 10^3. After 24 hours, the cells were treated with increasing concentrations of the inhibitory compounds for 48 hours. Cytotoxic activity of parent and conjugate compounds was assessed by 3-(4,5-dimethylthiazol-2-yl)-2,5-diphenyltetrazolium bromide (MTT) assay, according to manufacturer's instructions. In brief, 100 μl of growth medium containing 0.5 mg ml^−1 MTT (Sigma-Aldrich, Darmstadt, Germany) were added to each well of a 96-well plate and incubated at 37 °C and 5% CO2 for 2 hours until the formation of visible intracellular purple crystals. Then, MTT-supplemented growth medium was discarded and 100 μl dimethyl sulfoxide (Sigma-Aldrich, Darmstadt, Germany) were added per well for solubilization of dye. Absorbance was then measured on a microplate reader (Diareader EL 800; Dialab, Wr. Neudorf, Austria) at 570 nm with a reference wavelength at 660 nm.

The test system of data set [1] is primary intestinal subepithelial myofibroblasts (SEMFs). The data set is described as follows: MTT viability assay, primary SEMFs. The following applies: Homo sapiens, 48 h treatment, mean of three independent experiments. The class given is cell-based.
Description: as §1
Intestinal myofibroblast isolation: primary intestinal subepithelial myofibroblasts were isolated from freshly collected intestinal mucosa biopsies as previously described,[28] from healthy individuals undergoing endoscopy for reasons of surveillance, after obtaining written and informed consent. Briefly, 4–6 pieces of intestinal tissue were collected in ice-cold Hank's Balanced Salt Solution (HBSS; Biosera, Nuaille, France) containing Ca^2+/Mg^2+ supplemented with P/S/A/G: penicillin (100 U ml^−1), streptomycin (100 μg ml^−1), amphotericin (2.5 μg ml^−1) and gentamycin (50 μg ml^−1), followed by 15 minute washes with HBSS with and without Ca^2+/Mg^2+ to remove possible contaminants. Next tissue was de-epithelialized by a 15 minute incubation in HBSS without Ca^2+/Mg^2+ containing 1 mM dithiothreitol (DTT, Sigma-Aldrich, Darmstadt, Germany) followed by 3× 30 minute washes in HBSS supplemented with 1 mM ethylenediaminetetraacetic acid (EDTA, Sigma-Aldrich, Darmstadt, Germany) at 37 °C. Tissue was cultured in RPMI 1640 (PAN Biotech, Aidenbach, Germany) supplemented with 10% fetal bovine serum (FBS; Biosera, Nuaille, France) and P/S/A/G for as long as 30 days at 37 °C and 5% CO2. After colonies of myofibroblasts reached 30% confluency, cells were detached and consequently cultured in 75 cm^2 flasks in Dulbecco's modified Eagle medium (DMEM, 4.5 g l^−1 glucose; PAN Biotech, Aidenbach, Germany) with 10% fetal bovine serum and P/S/A.
as §3

The test system of a further data set is Caco2. The data set is described as follows: MTT viability assay, Caco2. The class given is cell-based. The following applies: Homo sapiens, Caco-2, 48 h treatment, mean of three independent experiments. As for the experimental part:
as §1, §2, §3
On the technique in general: Formazan colour is commonly taken as a measure of viable cells.

The test system of a further data set is K562. The data set is described as follows: MTT viability assay, K562. The class given is cell-based. The following applies: Homo sapiens, 48 h treatment, mean of three independent experiments. As for the experimental part: as §1, §2, §3
The next data set has as its system HT-29. Kind of data set: MTT viability assay, HT-29. The class given is cell-based. The note with it: Homo sapiens; HT-29, MTT, 48 h treatment, mean of three independent experiments. Here is the method:
as §1, §2, §3

Another data set relates to HeLa. The data set is described as follows: MTT viability assay, HeLa. The class given is cell-based. The following applies: Homo sapiens, 48 h treatment, mean of three independent experiments. As for the experimental part: as §1, §2, §3
In a further data set the test system is A549. The data set is described as follows: MTT viability assay, A549. The note with it: Homo sapiens, 48 h treatment, mean of three independent experiments. The class given is cell-based. As for the experimental part: as §1, §2, §3
For a further data set, the system named is SRPK1 in HeLa cells. Kind of data set: Immunofluorescence of SRPK1 subcellular localization. The class given is cell-based. As for the experimental part:
In a following step the effect of geo140 was tested on the subcellular distribution of SRPK1 in HeLa cells. To address this issue, a series of immunofluorescence experiments was performed to assess the effect of geo140, relative to its parent compounds, JH-VII-139-1 and 5-FU on SRPK1 localization.
Fig. 6 Fluorescent patterns of SRPK1 in HeLa cells treated with JH-VII-139-1, 5-FU, and geo140 (for the indicated concentrations and time periods). SRPK1 was detected using an anti-SRPK1 monoclonal antibody (Alexa488-green fluorescence) while nuclei were stained with PI (red fluorescence). Scale bar: 10 μm.
HeLa cells (3 × 10^4 cells per well) were seeded on glass coverslips in 24-well plates. After 24 hours, cells were treated with the indicated concentrations of inhibitors for 24 or 48 hours. Following incubation, samples were fixed with 4% paraformaldehyde in PBS for 20 minutes at room temperature. Paraformaldehyde was quenched with 100 mM Tris-HCl (pH 7.5), and cells were permeabilized with 0.2% Triton X-100 in PBS for 10 minutes. Blocking was performed with 0.5% fish skin gelatin in PBS. Cells were then probed with a primary antibody (anti-SRPK1 monoclonal, 1 : 100 dilution, BD Biosciences, San Jose, CA, USA) and a secondary antibody (Alexa488-conjugated goat anti-mouse, 1 : 400 dilution, Molecular Probes, Eugene, OR, USA), followed by DNA staining with propidium iodide, as previously described.[25] Coverslips were mounted with mounting medium (0.01% p-phenylenediamine and 50% glycerol in PBS) and visualized using a Nikon confocal microscope with EZ-C1 3.20 software.

Data set [2] can be described thus: Stability in human plasma (LC-ESI-MS). The note with it: 37 °C. The class given is in vitro ADME. Here is the method: (§4) The stability of SRPK1-targeting conjugates geo15 and geo140 was assessed at pH 5.2 and 7.4, as well as in cell culture medium (DMEM) and human plasma. All experiments were conducted at 37 °C, with samples analysed by LC-ESI-MS at specific time points. […] The half-lives of the conjugates ranged from several minutes to several hours, is discussed below.
(§5) Chemical stability experiments were conducted using LC-MS Method 4, except for the
(§6) pH stability studies of compound geo15, which were performed using LC-MS Method
(§7) 3. Representative chromatograms are provided for each experiment. geo15:
(§8) Figure S16. Chemical stability assay LC chromatograms for geo15.
(§9) Figure S17. Chemical stability assay LC chromatograms for geo140.

Data set [3] in a line: Chemostability in pH 5.2 and 7.4 buffers and DMEM (LC-ESI-MS). The class given is physicochemical. The note with it: 37 °C. As for the experimental part:
as §4, §5, §6, §7, §8, §9

The next data set addresses T1, GST-SRPK2 (Homo sapiens, UniProt P78362).
T1 construct: made in house; host or cells: bacteria (pGEX-2T vector)
The data set is described as follows: In vitro kinase assay, GST-SRPK2. The class given is biochemical. The note with it: substrate GST-LBRNt(62–92), 25 μM ATP. As for the experimental part: (§10) The inhibitory activity of geo140 and JH-VII-139-1 against SRPK1 and SRPK2 was assessed using in vitro kinase assays (Fig. 5). […] The IC50 values summarized in Panel E indicate that both JH-VII-139-1 and the hybrid compound geo140 act as effective inhibitors of SRPK-mediated phosphorylation, with however, differential selectivity between SRPK1 and SRPK2.
(§11) Fig. 5 Phosphorylation of 1 μg GST-LBRNt(62–92) by 0.5 μg GST-SRPK1 or 0.5 μg GST-SRPK2 in the presence of increasing concentrations of geo140 (A and B, respectively) or in the presence of increasing concentrations of JH-VII-139-1 (C and D, respectively). Panel C was taken from a previous publication of the authors.[2] The samples were analyzed by SDS-PAGE on 12% gels, stained with Coomassie blue and autoradiographed. Only the relevant part of the autorad corresponding to the phosphorylated substrate is shown. E. IC50 values of geo140 and JH-VII-139-1 against GST-SRPK1 and GST-SRPK2.
(§12) Human SRPK1, SRPK2, and a turkey LBR N-terminal fragment (amino acids 62–92; LBRNt(62–92)) were expressed as GST-fusion proteins in bacteria using the pGEX-2T vector (Amersham Biosciences) as previously described.[15] […] Phosphorylated GST-LBRNt(62–92) was detected by autoradiography (Super RX film, Fujifilm). Incorporated radioactivity was quantified by scintillation counting of the excised SDS-PAGE gel bands.

Another data set concerns HeLa cells. Kind of data set: Inverted phase-contrast microscopy of treated cells. The class given is cell-based. The note with it: 10 μM, phase-contrast microscope. Here is the method: A similar morphology of geo140-treated cells was also observed using an inverted phase-contrast microscope.
Fig. 7 Microscopic view of control HeLa cells and treated with 10 μM geo140, taken at 10× or 40× magnification as indicated, using an inverted phase-contrast microscope.

The target of a further data set is T2, GST-SRPK1 (Homo sapiens, UniProt Q96SB4).
T2 construct: made in house; host or cells: bacteria (pGEX-2T vector)
T2 sequence (Q96SB4 whole entry): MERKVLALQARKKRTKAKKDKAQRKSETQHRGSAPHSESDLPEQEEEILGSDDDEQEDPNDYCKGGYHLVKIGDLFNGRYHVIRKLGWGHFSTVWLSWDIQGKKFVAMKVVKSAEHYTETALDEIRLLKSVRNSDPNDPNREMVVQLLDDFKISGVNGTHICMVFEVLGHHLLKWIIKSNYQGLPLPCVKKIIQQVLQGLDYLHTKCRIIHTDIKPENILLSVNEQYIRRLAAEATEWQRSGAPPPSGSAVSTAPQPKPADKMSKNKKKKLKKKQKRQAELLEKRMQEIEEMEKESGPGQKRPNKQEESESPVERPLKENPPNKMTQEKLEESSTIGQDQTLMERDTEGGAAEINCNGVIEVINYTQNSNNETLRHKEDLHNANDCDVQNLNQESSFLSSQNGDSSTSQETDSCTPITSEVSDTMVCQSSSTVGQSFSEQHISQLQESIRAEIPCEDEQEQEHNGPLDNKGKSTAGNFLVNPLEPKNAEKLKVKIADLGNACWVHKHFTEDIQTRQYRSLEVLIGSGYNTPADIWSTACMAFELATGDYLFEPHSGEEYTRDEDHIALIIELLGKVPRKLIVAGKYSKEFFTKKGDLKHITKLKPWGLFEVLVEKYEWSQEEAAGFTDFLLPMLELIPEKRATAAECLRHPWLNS
Kind of data set: In vitro kinase assay, GST-SRPK1. The class given is biochemical. The following applies: substrate GST-LBRNt(62–92), 25 μM ATP. Here is the method: as §10, §11, §12

T1 sequence (P78362 whole entry): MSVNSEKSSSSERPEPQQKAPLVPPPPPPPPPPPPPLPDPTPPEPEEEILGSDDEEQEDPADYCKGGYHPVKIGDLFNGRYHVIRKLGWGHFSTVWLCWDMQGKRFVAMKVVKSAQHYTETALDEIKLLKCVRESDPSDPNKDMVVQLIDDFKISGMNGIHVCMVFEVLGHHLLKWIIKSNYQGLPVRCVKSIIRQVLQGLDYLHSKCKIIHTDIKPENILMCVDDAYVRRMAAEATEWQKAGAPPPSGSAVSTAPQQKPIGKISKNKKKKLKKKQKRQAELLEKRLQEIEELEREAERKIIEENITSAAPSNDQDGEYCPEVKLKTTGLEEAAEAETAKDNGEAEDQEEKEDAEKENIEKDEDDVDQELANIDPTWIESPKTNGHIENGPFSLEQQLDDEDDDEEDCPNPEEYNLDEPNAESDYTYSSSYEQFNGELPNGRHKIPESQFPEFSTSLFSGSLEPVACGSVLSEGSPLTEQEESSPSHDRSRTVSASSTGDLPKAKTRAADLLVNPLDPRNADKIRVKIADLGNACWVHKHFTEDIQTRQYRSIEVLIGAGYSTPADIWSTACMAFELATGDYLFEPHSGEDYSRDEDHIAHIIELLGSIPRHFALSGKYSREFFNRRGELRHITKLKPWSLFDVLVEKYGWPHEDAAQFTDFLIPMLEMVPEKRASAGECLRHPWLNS

For `O=c1[nH]cc(F)c(=O)[nH]1` [5-FU, 5-fluorouracil, reference compound], the EC50 was over 50 µM with HepG2; over 50 µM in data set [1]; over 50 µM in the data set on Caco2; over 50 µM with K562; 3.62 µM with HT-29; 25.7 µM in the data set on HeLa. Also, the 50% effective concentration (EC50) with A549 was 15.2 µM. For the same compound, the “effect on SRPK1 subcellular localization” value with SRPK1 in HeLa cells (20 μM, 24 h) is reported as “more diffuse SRPK1 staining pattern, with some nuclear translocation of the kinase”; in the data set on SRPK1 in HeLa cells (48 h), “almost complete nuclear translocation of SRPK1”.
As to `Nc1ccn([C@@H]2O[C@H](CO)[C@@H](O)C2(F)F)c(=O)n1` [Gemcitabine, gemcitabine, reference compound], the concentration giving a half-maximal response (EC50) in the data set with HepG2 is 31.4 µM; in data set [1] it was over 50 µM; in the data set with Caco2 it was over 50 µM; in the data set on K562 it was over 50 µM; in the data set with HT-29, 28.7 µM; with HeLa, 6.7 µM. In the data set on A549, this compound showed a concentration for a half-maximal effect (EC50) of over 50 µM.
On to `COc1cc(/C=C(\C#N)C(=O)Nc2nnc(C(F)(F)F)s2)ccc1OCc1ccc(NC(=O)CNC(=O)OC[C@H]2O[C@@H](n3ccc(N)nc3=O)C(F)(F)[C@@H]2O)cc1` [geo15], for which the “detection of retro-Knoevenagel reaction product 21” value in data set [2] is “not observed”; in data set [3] (DMEM) it was “not observed”; in [3] (pH buffer media), “small percentage”. Besides, the half-life in data set [2] was over 48 h; in [3] (DMEM cell culture medium, DMEM), over 48 h; in data set [3] (pH 7.4 buffer), over 48 h. Besides, the EC50 is over 50 µM with HepG2; over 50 µM in data set [1]; over 50 µM in the data set on Caco2; over 50 µM with K562; 38.4 µM in the data set with HT-29; 33.1 µM with HeLa. Moreover, the EC50 in the data set on A549 was over 50 µM. Also, in [3] (during the 24 hour period, overall stability profile (all media)), the “concentration of the conjugate remaining” value is on record as “above 50%”. In addition, in [3] (stability media), the “release of SRPIN803 via the 1,6-elimination mechanism” value was “no release of SRPIN803”.
Regarding `CCc1cc2c(cc1-c1ccn(C(=O)NCCOCCOCCNC(=O)Cn3c(=O)[nH]cc(F)c3=O)n1)C(C)(C)c1[nH]c3cc(C#N)ccc3c1C2=O` [geo140, (JH-VII-139-1)–(5-FU) conjugate], the “reduction in initial concentration” value is on record as 10–20% in [2] (after 24 hours) and 10–20% in data set [3] (DMEM, after 24 hours). Besides, the EC50 with HepG2 is 27.1 µM; in data set [1], 21.5 µM; with Caco2, 31.2 µM; in the data set with K562, 13.7 µM; with HT-29, 19.3 µM; in the data set on HeLa, 11.7 µM. Besides, the half-maximal effective concentration (EC50) in the data set on A549 is over 50 µM. The figures for the IC50 against GST-SRPK2 and at GST-SRPK1 were 7.9 µM and 0.0221 µM, respectively. For the same compound, in the data set with HeLa cells, the “mitotic cells (round shape, distinct chromosomal structures)” value was “significant increase in mitotic cells”. The half-life in data set [3] (pH 5.2 buffer) and in [3] (pH 7.4 buffer) was over 48 h throughout. Besides, the “SRPK1 distribution in interphase cells” value in the data set with SRPK1 in HeLa cells is listed as “SRPK1 retained a cytoplasmic distribution similar to that seen in untreated controls”. The “number of mitotic cells” value in the data set on SRPK1 in HeLa cells (immunofluorescence) is recorded as “significant increase in the number of mitotic cells”.

As usually defined, the EC50 is the concentration giving half of the maximal effect. Lower therefore signals greater potency. One may read the half-life as the time needed for the level to fall by half in the phase considered. For orientation: IC50 means the concentration needed to halve the response being measured. A higher IC50 goes with a need for much substance.

These data come from publication PMC12574689, “Synthesis of novel SRPK1-targeting hybrid compounds incorporating antimetabolites for cancer therapy” (RSC Medicinal Chemistry, 2025).
